Experimental data: publication PMC9841397 (2023)

Test system: CMP-D-C3 (C3, ΔP1a) (RNA, riboswitch) GGAGCGUUACGUCCGCCCACGGCUCUUUAAAAACAAAAGGA
Assay: ITC
Details: 100 mM K+, 20 mM Mg2+; 50 mM K-MOPS pH 7.5, 25 °C

- Kd: 18.3 ± 1.2 µM
Structure (SMILES): NC(=O)c1ccc[n+]([C@@H]2O[C@H](COP(=O)(O)O)[C@@H](O)[C@H]2O)c1
